Reference: ChEMBL document CHEMBL3758080, “4-Arylamino-6-nitroquinazolines: Synthesis and their activities against neglected disease leishmaniasis” (Eur J Med Chem, 2016)

These compounds were tested on Leishmania major (assay: Potency index, ratio IC50 of pentamidine to IC50 of compound for antilieshmanial activity against Leishmania major promastigotes). Settings: not given; call rule not given here.
Assay type: functional

With `CSc1ccc(Nc2ncnc3ccc([N+](=O)[O-])cc23)cc1` as the compound, how does the “Ratio IC50” value read?
The value was 3.

The compounds below were run on Leishmania major (assay: Antileishmanial activity against Leishmania major promastigotes after 72 hrs by Neubauer counting chamber based microscopy). Settings: not given.
Assay type: functional, organism-based

With `O=[N+]([O-])c1ccc2ncnc(Nc3cccc(Cl)c3)c2c1` as the compound, how does the IC50 read?
The IC50 was “Not Active”.

`O=[N+]([O-])c1ccc2ncnc(Nc3ccccc3)c2c1` was tested. Which IC50 did it give?
The IC50 was “Not Active”.

With `O=[N+]([O-])c1ccc2ncnc(Nc3ccc(F)cc3)c2c1` as the compound, how does the IC50 read?
The IC50 was “Not Active”.

`O=[N+]([O-])c1ccc2ncnc(Nc3ccc(I)cc3)c2c1` was tested. Which IC50 did it give?
The IC50 was “Not Active”.

`COc1cccc(Nc2ncnc3ccc([N+](=O)[O-])cc23)c1` was tested. Which IC50 did it give?
The IC50 was “Not Active”.

How did the IC50 turn out when `O=[N+]([O-])c1ccc2ncnc(Nc3ccc(Cl)cc3Cl)c2c1` was run?
Its IC50 is “Not Active”.

How did the IC50 turn out when `O=[N+]([O-])c1ccc2ncnc(Nc3ccc(Cl)cc3)c2c1` was run?
The IC50 was “Not Active”.

How did the IC50 turn out when `O=[N+]([O-])c1ccc2ncnc(Nc3cccc(O)c3)c2c1` was run?
Its IC50 is “Not Active”.

Which IC50 does the source give for `COc1ccc(Nc2ncnc3ccc([N+](=O)[O-])cc23)cc1` here?
The IC50 was “Not Active”.

With `Cc1ccc(C)c(Nc2ncnc3ccc([N+](=O)[O-])cc23)c1` as the compound, how does the IC50 read?
The IC50 was “Not Active”.

Which IC50 does the source give for `O=[N+]([O-])c1ccc2ncnc(Nc3cc(Cl)ccc3Cl)c2c1` here?
Its IC50 is “Not Active”.

Which IC50 does the source give for `O=[N+]([O-])c1ccc2ncnc(Nc3ccc(Cl)c(Cl)c3)c2c1` here?
The IC50 was “Not Active”.

For `COc1cc(OC)c(Nc2ncnc3ccc([N+](=O)[O-])cc23)cc1Cl`, which IC50 is on record?
Its IC50 is “Not Active”.

Same assay, conditions: Leishmania major, 72 h; read-out: IC50

How did the IC50 turn out when `O=[N+]([O-])c1ccc2ncnc(Nc3cccc(Br)c3)c2c1` was run?
The IC50 was 9.04 µM.

How did the IC50 turn out when `Cc1ccc(Nc2ncnc3ccc([N+](=O)[O-])cc23)cc1C` was run?
Its IC50 is 35.9 µM.

`COc1ccccc1Nc1ncnc2ccc([N+](=O)[O-])cc12` was tested. Which IC50 did it give?
The IC50 was 4.37 µM.

With `Cc1ccc(Cl)cc1Nc1ncnc2ccc([N+](=O)[O-])cc12` as the compound, how does the IC50 read?
The IC50 was 44.9 µM.

For `COc1ccc(OC)c(Nc2ncnc3ccc([N+](=O)[O-])cc23)c1`, which IC50 is on record?
Its IC50 is 12.3 µM.

With `O=[N+]([O-])c1ccc2ncnc(Nc3ccccc3Cl)c2c1` as the compound, how does the IC50 read?
The IC50 was 6.53 µM.

For `CSc1ccc(Nc2ncnc3ccc([N+](=O)[O-])cc23)cc1`, which IC50 is on record?
Its IC50 is 1.87 µM.

Which IC50 does the source give for `Cc1ccc(Nc2ncnc3ccc([N+](=O)[O-])cc23)cc1` here?
Its IC50 is 24 µM.

Which IC50 does the source give for `CCc1ccc(Nc2ncnc3ccc([N+](=O)[O-])cc23)cc1` here?
The IC50 was 38.2 µM.

`CSc1cccc(Nc2ncnc3ccc([N+](=O)[O-])cc23)c1` was tested. Which IC50 did it give?
The IC50 was 19.9 µM.

`O=[N+]([O-])c1ccc2ncnc(Nc3ccc(Br)cc3)c2c1` was tested. Which IC50 did it give?
The IC50 was 61.5 µM.
